System: Phospholipidosis
Assay: Literature-mined public compounds from Kruhlak et al phospholipidosis modelling dataset

SMILES	Phospholipidosis
O=C1C[C@@H]2OCC=C3CN4CC[C@]56c7ccccc7N1[C@H]5[C@H]2[C@H]3C[C@H]46 [STRYCHNINE]	Negative: based on the absence of positive reported data from WMDD
C[C@]12CC[C@H]3[C@@H](CCC4=CC(=O)CC[C@@H]43)[C@@H]1CC[C@@H]2O [NANDROLONE]	Negative: based on the absence of positive reported data from WMDD
Cc1ccc(/C(=C\CN2CCCC2)c2ccccn2)cc1 [TRIPROLIDINE]	Negative: based on the absence of positive reported data from WMDD
CCN(CC)C(C)CN1c2ccccc2Sc2ccccc21 (stereo not given) [ETHOPROPAZINE]	Negative: based on the absence of positive reported data from WMDD
C[C@]1(Cn2ccnn2)[C@H](C(=O)O)N2C(=O)C[C@H]2S1(=O)=O [TAZOBACTAM]	Negative: based on the absence of positive reported data from WMDD
Cc1c(-c2ccccc2)n(/N=N/n2c(-c3ccccc3)c(C)[n+]3ccccc23)c2cccc[n+]12.[Br-].[Br-] [FAZADINIUM BROMIDE]	Negative: based on the absence of positive reported data from WMDD
C=CC[C@]1(O)CC[C@H]2[C@@H]3CCC4=CCCC[C@@H]4[C@H]3CC[C@@]21C [ALLYLESTRENOL]	Negative: based on the absence of positive reported data from WMDD
C[N+](C)(C)C[C@H](O)CC(=O)[O-] [LEVOCARNITINE]	Negative: based on the absence of positive reported data from WMDD
O=C1Cc2cc(CCN3CCN(c4nsc5ccccc45)CC3)c(Cl)cc2N1 [ZIPRASIDONE]	Negative: based on the absence of positive reported data from WMDD
NC[C@H]1O[C@H](O[C@H]2[C@H](O)[C@@H](O[C@H]3O[C@H](CO)[C@@H](O)[C@H](N)[C@H]3O)[C@H](N)C[C@@H]2N)[C@H](N)C[C@@H]1O [TOBRAMYCIN]	Positive: strong inducer confirmed by electron microscopy
CN[C@@H]1[C@@H](O)[C@@H](O[C@@H]2[C@@H](O)[C@H](O[C@H]3O[C@H](C(C)N)CC[C@H]3N)[C@@H](N)C[C@H]2N)OC[C@]1(C)O (stereo not given in full) [GENTAMICIN C2]	Positive: strong inducer confirmed by electron microscopy
CC(C)N(CCC(CCN1CCCCC1)(C(N)=O)c1ccccc1Cl)C(C)C (stereo not given) [DISOBUTAMIDE]	Positive: strong inducer confirmed by electron microscopy
CC(C)=CCC1C(=O)N(c2ccccc2)N(c2ccccc2)C1=O [FEPRAZONE]	Negative: based on the absence of positive reported data from WMDD
O=C(CCCN1CCC(O)(c2ccc(Cl)cc2)CC1)c1ccc(F)cc1 [HALOPERIDOL]	Positive: strong inducer confirmed by electron microscopy
CN1CCN(CC/C=C2/c3ccccc3Sc3ccc(S(=O)(=O)N(C)C)cc32)CC1 [THIOTHIXENE]	Negative: based on the absence of positive reported data from WMDD
COc1ccc2[nH]c([S+]([O-])Cc3ncc(C)c(OC)c3C)nc2c1 (stereo not given) [OMEPRAZOLE]	Negative: based on the absence of positive reported data from WMDD
COc1ccccc1OCC(O)COC(N)=O (stereo not given) [METHOCARBAMOL]	Negative: based on the absence of positive reported data from WMDD
Clc1ccccc1CNC[C@H]1CC[C@H](CNCc2ccccc2Cl)CC1	Positive: strong inducer confirmed by electron microscopy
CN1[C@@H](CC(=O)c2ccccc2)CCC[C@H]1C[C@H](O)c1ccccc1 [LOBELINE]	Negative: based on the absence of positive reported data from WMDD
CCn1nc(C)c2c1C(c1ccccc1)=NCC(=O)N2 [RIPAZEPAM]	Negative: based on the absence of positive reported data from WMDD

SMILES	Phospholipidosis
CC1(C)NC(=O)N(C[C@@H](COc2ccc(-c3ccc(OC(F)(F)F)cc3)cc2)N(O)C=O)C1=O	Negative: confirmed by electron microscopy
CCC1NC(=O)c2cc(S(N)(=O)=O)c(Cl)cc2N1 (stereo not given) [QUINETHAZONE]	Negative: based on the absence of positive reported data from WMDD
CC1(C)OC[C@H]([C@@H](CS(=O)(=O)c2ccc(Oc3ccc(OC(F)(F)F)cc3)cc2)N(O)C=O)O1	Negative: confirmed by electron microscopy
Cc1ccc(N(CC2=NCCN2)c2cccc(O)c2)cc1 [PHENTOLAMINE]	Negative: based on the absence of positive reported data from WMDD
NC(=O)C[S+]([O-])C(c1ccccc1)c1ccccc1 (stereo not given) [MODAFINIL]	Negative: based on the absence of positive reported data from WMDD
O=C(NCC1CCCCN1)c1cc(OCC(F)(F)F)ccc1OCC(F)(F)F (stereo not given) [FLECAINIDE]	Negative: confirmed by electron microscopy
CC(CCCN(CCCl)CCCl)Nc1ccnc2cc(Cl)ccc12 (stereo not given) [CHLOROQUINE MUSTARD]	Positive: weak inducer based on presence of foamy macrophages and cytoplasmic vacuolations
CN1C(=O)CN=C(c2ccccc2)c2cc(Cl)ccc21 [DIAZEPAM]	Negative: confirmed by electron microscopy
C/N=C(\NC)NCc1ccccc1 [BETHANIDINE]	Negative: based on the absence of positive reported data from WMDD
CC(C)(CO)[C@@H](O)C(=O)NCCC(=O)O [PANTOTHENIC ACID]	Negative: based on the absence of positive reported data from WMDD
O=S(=O)(O)c1ccc(/N=N/c2cc(CO)c(O)c(/N=N/c3ccc(S(=O)(=O)O)c4ccccc34)c2O)c2ccccc12 [BROWN HT]	Negative: based on the absence of positive reported data from WMDD
CCCC1C(=O)N2C(N(C)C)=Nc3ccc(C)cc3N2C1=O (stereo not given) [APAZONE]	Negative: based on the absence of positive reported data from WMDD
CC/C(=C(\c1ccccc1)c1ccc(OCCN(C)C)cc1)c1ccccc1 [TAMOXIFEN]	Positive: strong inducer confirmed by electron microscopy
O=C(O)[C@H]1/C(=C/CO)O[C@@H]2CC(=O)N21 [CLAVULANIC ACID]	Negative: based on the absence of positive reported data from WMDD
CCC[C@@H](NC(=O)N1C(=O)C(CC)(CC)[C@@H]1Oc1ccc(C(=O)N2CCN(C)CC2)cc1)c1ccc2c(c1)OCO2	Positive: weak inducer based on presence of foamy macrophages and cytoplasmic vacuolations
CN1[C@@H]2CC[C@H]1C[C@@H](OC(=O)C(CO)c1ccccc1)C2 (stereo not given in full) [ATROPINE]	Positive: weak inducer based on presence of foamy macrophages and cytoplasmic vacuolations
CC(C)(N)Cc1ccccc1 [PHENTERMINE]	Positive: weak inducer based on presence of foamy macrophages and cytoplasmic vacuolations
CCOC(=O)NC(C)(C)Cc1ccc(Cl)cc1 [CLOFOREX]	Negative: confirmed by electron microscopy
CN1CCN2c3ccccc3Cc3ccccc3C2C1 (stereo not given) [MIANSERIN]	Positive: weak inducer based on presence of foamy macrophages and cytoplasmic vacuolations
CN(C)/N=N/c1[nH]cnc1C(N)=O [DACARBAZINE]	Negative: based on the absence of positive reported data from WMDD

SMILES	Phospholipidosis
CC(=O)Oc1ccc(C(c2ccc(OC(C)=O)cc2)c2ccccn2)cc1 [BISACODYL]	Negative: based on the absence of positive reported data from WMDD
O=C[C@H](O)[C@@H](O)[C@H](O)CO [XYLOSE]	Negative: based on the absence of positive reported data from WMDD
CCC1(CC)C(=O)NC(=O)NC1=O [BARBITAL]	Negative: based on the absence of positive reported data from WMDD
CCCC(C)C1(CC)C(=O)NC(=O)NC1=O (stereo not given) [PENTOBARBITAL]	Negative: based on the absence of positive reported data from WMDD
C=CCC1(CC(C)C)C(=O)NC(=O)NC1=O [BUTALBITAL]	Negative: based on the absence of positive reported data from WMDD
CCN(CC)CCOc1ccc(C(O)(Cc2ccc(Cl)cc2)c2ccc(C)cc2)cc1 (stereo not given) [TRIPARANOL]	Positive: strong inducer confirmed by electron microscopy
CC1(O)CCC(C(C)(C)O)CC1.O (stereo not given) [TERPIN HYDRATE]	Negative: based on the absence of positive reported data from WMDD
CCc1c(C)[nH]c2c1C(=O)C(CN1CCOCC1)CC2 (stereo not given) [MOLINDONE]	Negative: based on the absence of positive reported data from WMDD
CC(=O)[C@]1(O)Cc2c(O)c3c(c(O)c2[C@@H](O[C@H]2C[C@H](N)[C@H](O)[C@H](C)O2)C1)C(=O)c1ccccc1C3=O [IDARUBICIN]	Negative: based on the absence of positive reported data from WMDD
C[N+](C)(CCOc1ccccc1)Cc1ccccc1.O=C([O-])c1cc2ccccc2cc1O [BEPHENIUM HYDROXYNAPHTHOATE]	Negative: based on the absence of positive reported data from WMDD
O=C1Nc2ccc(Cl)cc2C(c2ccccc2Cl)=NC1O (stereo not given) [LORAZEPAM]	Negative: based on the absence of positive reported data from WMDD
CCOC(=O)[C@H](CCc1ccccc1)N[C@@H](C)C(=O)N1[C@H](C(=O)O)C[C@H]2CCCC[C@@H]21 [TRANDOLAPRIL]	Negative: based on the absence of positive reported data from WMDD
CC(C)(C)NCC(O)c1cc(O)cc(O)c1 (stereo not given) [TERBUTALINE]	Negative: based on the absence of positive reported data from WMDD
O=C1OC(c2ccc(O)c(S(=O)(=O)O)c2)(c2ccc(O)c(S(=O)(=O)O)c2)c2c(Br)c(Br)c(Br)c(Br)c21 [SULFOBROMOPHTHALEIN]	Negative: based on the absence of positive reported data from WMDD
CN(C)CCOc1ccc(/C(=C(/CCCl)c2ccccc2)c2ccccc2)cc1 [TOREMIFENE]	Negative: based on the absence of positive reported data from WMDD
COc1nccnc1NS(=O)(=O)c1ccc(N)cc1	Negative: based on the absence of positive reported data from WMDD
COc1ccc2cc1Oc1cc3c(cc1OC)CC[N+](C)(C)[C@H]3Cc1ccc(cc1)Oc1c(OC)c(OC)cc3c1[C@@H](C2)[N+](C)(C)CC3 [METOCURINE]	Negative: based on the absence of positive reported data from WMDD
N=C(N)N1CCc2ccccc2C1 [DEBRISOQUIN]	Negative: based on the absence of positive reported data from WMDD
CN(C)CCCn1c2c(c3ccccc31)CCCCCC2 [IPRINDOLE]	Positive: strong inducer confirmed by electron microscopy
CNC(C)CCC=C(C)C (stereo not given) [ISOMETHEPTENE]	Negative: based on the absence of positive reported data from WMDD

Source: ChEMBL document CHEMBL1697821, “Development of a phospholipidosis database and predictive quantitative structure-activity relationship (QSAR) models” (Toxicol Mech Methods, 2008)
